What all share (assay type): in vivo
For data set [1], the system named is China jute (Ab). The experiment in a line: Test Example 4: crop plant selectivity by upland field soil treatment (cotton), herbicidal effects. Also on record: scale not given here. To be noted: evaluated 21st day after application. The method, boiled down: (§1)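 Weeds and cotton, sown in sand and topped with soil, received a soil-applied treatment. Evaluation after three weeks in a greenhouse followed a standard rating scale.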

For data set [2], the system named is slender amaranth (Am). Described as above. Also on record: scale not given here. To be noted: evaluated 21st day after application. The method, boiled down:
as §1

In data set [3] the test system is green foxtail (Se). The data set is described as above. Also on record: scale not given here. To be noted: evaluated 21st day after application. In short, it runs like this: as §1
The test system of data set [4] is rice flatsedge (Ci). The experiment in a line: Test Example 2: herbicidal effects by upland field soil treatment.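 Further: grade of growth control; 5 = at least 90%; 4 = 70 to 90%; 3 = 50 to 70%; 2 = 30 to 50%; 1 = 10 to 30%; 0 = under 10%.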 To be noted: 100 g of the active ingredient per 10 ares. From the text:
(§2) (Test on Herbicidal Effects by Upland Field Soil Treatment)

The subject of data set [5] is pale smartweed (Po). Described as above. Conditions: 100 g of the active ingredient per 10 ares.
Excerpt: as §2

Data set [6] concerns slender amaranth (Am). The data set is described as above. Conditions: 100 g of the active ingredient per 10 ares.
Excerpt: as §2

Data set [7] deals with barnyardgrass (Ec). The description is as above. To be noted: 100 g of the active ingredient per 10 ares.
Excerpt: as §2

Data set [8] has as its system common lambsquarters (Ch). The description is as above. Conditions: 100 g of the active ingredient per 10 ares.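 Further: grade of growth control; 5 = at least 90%; 4 = 70 to 90%; 3 = 50 to 70%; 2 = 30 to 50%; 1 = 10 to 30%; 0 = under 10%.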
Excerpt: as §2

Data set [9] concerns Digitaria ciliaris (Di). Described as above. Conditions: 100 g of the active ingredient per 10 ares.
Excerpt: as §2

The subject of data set [10] is corn (Ze). The experiment in a line: Test Example 7: crop plant selectivity by upland field soil treatment (corn), phytotoxicity. Also on record: scale not given here. Conditions: 21st day after application. In short, it runs like this:
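Values are ratings of herbicidal effect and phytotoxicity on a standard scale, taken 21 days after application. Test species were sown together with corn in sand-filled pots, covered with soil, and grown in a greenhouse.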

[11] abbreviates: 21st day after the application, index 0-5 of Table 47.
Setting [12] is: evaluated on the 21st day after application.
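Wherever Herbicidal effects Ec is given: grade of growth control; 5 = at least 90%; 4 = 70 to 90%; 3 = 50 to 70%; 2 = 30 to 50%; 1 = 10 to 30%; 0 = under 10%.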
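Wherever Herbicidal effects Po is given: grade of growth control; 5 = at least 90%; 4 = 70 to 90%; 3 = 50 to 70%; 2 = 30 to 50%; 1 = 10 to 30%; 0 = under 10%.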

`Cn1c(C(F)(F)F)ccc(-c2cc(Cl)c(Cl)cc2F)c1=O` [1-136]: the “Herbicidal effects Ab” value in data set [1] (dose 6.3 g ai/10 a) came out at 5. For the same molecule, the “Herbicidal effects Am” value in [2] (dose 6.3 g ai/10 a) and in data set [6] (setting [11]) was 5 throughout. Besides, in data set [3] (dose 6.3 g ai/10 a), the “Herbicidal effects Se” value turned out to be 5. Further, in [4] (setting [11]), the “Herbicidal effects Ci” value is listed as 5. In data set [5] (setting [11]), the “Herbicidal effects Po” value came to 5. For the same molecule, the “Herbicidal effects Ec” value in data set [7] (setting [11]) came to 5. In addition, the “Herbicidal effects Ch” value in [8] (setting [11]) was 5. Also, the “Herbicidal effects Di” value in [9] (setting [11]) is reported as 5. For the same molecule, the “Phytotoxicity Ze” value in [10] (dose 1.6 g ai/10a) worked out at 1.
Turning to `Cn1c(C(F)(F)F)ccc(-c2cc(OCC(F)(F)F)c(Cl)cc2F)c1=O` [1-155], the “Herbicidal effects Ab” value in data set [1] (dose 1.6 g ai/10 a) and in data set [1] (dose 6.3 g ai/10 a) was 5 in each case. For the same molecule, the “Herbicidal effects Am” value in data set [2] (dose 1.6 g ai/10 a), in data set [2] (dose 6.3 g ai/10 a) and in data set [6] (setting [11]) was 5 in each case. Also, the “Herbicidal effects Se” value in [3] (dose 1.6 g ai/10 a) and in data set [3] (dose 6.3 g ai/10 a) was 5 throughout. Besides, the “Herbicidal effects Ci” value in data set [4] (setting [11]) came to 5. In [5] (setting [11]), the “Herbicidal effects Po” value worked out at 5. For the same molecule, in data set [7] (setting [11]), the “Herbicidal effects Ec” value is listed as 5. The “Herbicidal effects Ch” value in data set [8] (setting [11]) turned out to be 5. Moreover, the “Herbicidal effects Di” value in data set [9] (setting [11]) worked out at 5. In addition, the “Phytotoxicity Ze” value in data set [10] (dose 1.6 g ai/10a) and in data set [10] (dose 6.3 g ai/10a) was 0 in each case.
For `Cn1c(C(F)(F)F)ccc(-c2cc(OCC3CC3)c(Cl)cc2F)c1=O` [1-160], the “Herbicidal effects Ab” value in data set [1] (dose 6.3 g ai/10 a) was found to be 5. Besides, the “Herbicidal effects Am” value in data set [2] (dose 6.3 g ai/10 a) and in data set [6] (setting [11]) was 5 in each case. Further, in data set [3] (dose 6.3 g ai/10 a), the “Herbicidal effects Se” value is given as 5. For the same molecule, in data set [4] (setting [11]), the “Herbicidal effects Ci” value worked out at 5. Also, the “Herbicidal effects Po” value in data set [5] (setting [11]) came out at 5. Besides, the “Herbicidal effects Ec” value in [7] (setting [11]) is reported as 5. Moreover, the “Herbicidal effects Ch” value in data set [8] (setting [11]) came out at 5. The “Herbicidal effects Di” value in data set [9] (setting [11]) was determined as 5. Moreover, the “Phytotoxicity Ze” value in data set [10] (dose 6.3 g ai/10a) amounted to 1.
In the case of `Cn1c(C(F)(F)F)ccc(-c2cc(OCCCl)c(Cl)cc2F)c1=O` [1-171], in data set [1] (dose 6.3 g ai/10 a), the “Herbicidal effects Ab” value was found to be 5. Moreover, the “Herbicidal effects Am” value in data set [2] (dose 6.3 g ai/10 a) and in data set [6] (setting [12]) was 5 in each case. In addition, in data set [3] (dose 6.3 g ai/10 a), the “Herbicidal effects Se” value turned out to be 5. Further, in [4] (setting [12]), the “Herbicidal effects Ci” value amounted to 5. Also, the “Herbicidal effects Po” value in [5] (setting [12]) was found to be 5. In addition, the “Herbicidal effects Ec” value in data set [7] (setting [12]) came out at 5. Also, the “Herbicidal effects Ch” value in data set [8] (setting [12]) amounted to 5. In data set [9] (setting [12]), the “Herbicidal effects Di” value is given as 5. Further, the “Phytotoxicity Ze” value in [10] (dose 6.3 g ai/10a) stood at 0.
On to `C#CCOc1cc(-c2ccc(C(F)(F)F)n(N)c2=O)c(F)cc1Cl` [1-178], for which the “Herbicidal effects Ab” value in data set [1] (dose 1.6 g ai/10 a) and in [1] (dose 6.3 g ai/10 a) was 5 in each case. Also, the “Herbicidal effects Am” value in data set [2] (dose 1.6 g ai/10 a), in data set [2] (dose 6.3 g ai/10 a) and in data set [6] (setting [12]) was 5 throughout. The “Herbicidal effects Se” value in data set [3] (dose 1.6 g ai/10 a) and in data set [3] (dose 6.3 g ai/10 a) was 5 throughout. Also, the “Herbicidal effects Ci” value in [4] (setting [12]) is reported as 5. In addition, the “Herbicidal effects Po” value in data set [5] (setting [12]) is on record as 5. Moreover, the “Herbicidal effects Ec” value in data set [7] (setting [12]) is on record as 5. The “Herbicidal effects Ch” value in data set [8] (setting [12]) is reported as 5. Also, in data set [9] (setting [12]), the “Herbicidal effects Di” value was 5. In addition, the “Phytotoxicity Ze” value in data set [10] (dose 1.6 g ai/10a) is 2.
Regarding `COc1cc(-c2ccc(C(F)(F)F)n(N)c2=O)c(F)cc1Cl` [1-179], the “Herbicidal effects Ab” value in data set [1] (dose 6.3 g ai/10 a) turned out to be 5. Moreover, the “Herbicidal effects Am” value in data set [2] (dose 6.3 g ai/10 a) and in [6] (setting [12]) was 5 each time. Further, in [3] (dose 6.3 g ai/10 a), the “Herbicidal effects Se” value turned out to be 5. In addition, the “Herbicidal effects Ci” value in data set [4] (setting [12]) was determined as 5. Also, the “Herbicidal effects Po” value in data set [5] (setting [12]) came out at 5. The “Herbicidal effects Ec” value in [7] (setting [12]) turned out to be 5. In [8] (setting [12]), the “Herbicidal effects Ch” value was 5. Moreover, the “Herbicidal effects Di” value in data set [9] (setting [12]) was 5. Also, the “Phytotoxicity Ze” value in data set [10] (dose 6.3 g ai/10a) was 1.
`C#CC(C)Oc1cc(Cl)cc(F)c1-c1ccc(C(F)(F)F)n(C)c1=O` (stereo not shown) [1′-5]: the “Herbicidal effects Ab” value in data set [1] (dose 1.6 g ai/10 a) and in data set [1] (dose 6.3 g ai/10 a) was 5 each time. Moreover, the “Herbicidal effects Am” value in data set [2] (dose 1.6 g ai/10 a), in data set [2] (dose 6.3 g ai/10 a) and in data set [6] (setting [12]) was 5 each time. In addition, the “Herbicidal effects Se” value in [3] (dose 1.6 g ai/10 a) is reported as 4; in data set [3] (dose 6.3 g ai/10 a), 5. Moreover, the “Herbicidal effects Ci” value in data set [4] (setting [12]) came to 5. Moreover, in data set [5] (setting [12]), the “Herbicidal effects Po” value is 5. Also, the “Herbicidal effects Ec” value in [7] (setting [12]) is 5. Also, the “Herbicidal effects Ch” value in [8] (setting [12]) is listed as 5. In data set [9] (setting [12]), the “Herbicidal effects Di” value turned out to be 5. The “Phytotoxicity Ze” value came to 1 in data set [10] (dose 1.6 g ai/10a) and 2 in data set [10] (dose 6.3 g ai/10a).
In the case of `C=CC(C)Oc1cc(-c2ccc(C(F)(F)F)n(C)c2=O)c(F)cc1Cl` (stereo not shown) [Compound 1-182], the “Herbicidal effects Ab” value in data set [1] (dose 6.3 g ai/10 a) is reported as 5. The “Herbicidal effects Am” value in [2] (dose 6.3 g ai/10 a) and in data set [6] (setting [12]) was 5 in each case. Besides, in [3] (dose 6.3 g ai/10 a), the “Herbicidal effects Se” value was 5. Besides, in data set [4] (setting [12]), the “Herbicidal effects Ci” value stood at 5. Besides, the “Herbicidal effects Po” value in [5] (setting [12]) worked out at 5. Besides, the “Herbicidal effects Ec” value in data set [7] (setting [12]) amounted to 5. Further, the “Herbicidal effects Ch” value in [8] (setting [12]) was determined as 5. Further, in data set [9] (setting [12]), the “Herbicidal effects Di” value turned out to be 5. Besides, the “Phytotoxicity Ze” value in data set [10] (dose 6.3 g ai/10a) came to 1.
